Source: PubChem BioAssay AID540332 (The Scripps Research Institute Molecular Screening Center, 2011)
Activity calls are given as the source filed them. The rule behind the calls is not given here.

How the values were obtained:
Test in all cases: selectivity profile across receptors and CYP450s – biochemical, Ricerca HitProfilingScreen, CYP450, set 2, selectivity assay for S1P4 agonist project, profiling panel (AID 540332)
[1] = system: Calcium Channel L-Type, Dihydropyridine; details: at 30 µM; active compounds read high
[2] = system: Adenosine A1; details: at 30 µM; active compounds read high
[3] = molecular target: Cytochrome P450 2C9 (Homo sapiens) (UniProt P11712); details: CYP450 2C9; at 30 µM; active compounds read high
Chain of Cytochrome P450 2C9 (Homo sapiens) (P11712 whole entry, looked up): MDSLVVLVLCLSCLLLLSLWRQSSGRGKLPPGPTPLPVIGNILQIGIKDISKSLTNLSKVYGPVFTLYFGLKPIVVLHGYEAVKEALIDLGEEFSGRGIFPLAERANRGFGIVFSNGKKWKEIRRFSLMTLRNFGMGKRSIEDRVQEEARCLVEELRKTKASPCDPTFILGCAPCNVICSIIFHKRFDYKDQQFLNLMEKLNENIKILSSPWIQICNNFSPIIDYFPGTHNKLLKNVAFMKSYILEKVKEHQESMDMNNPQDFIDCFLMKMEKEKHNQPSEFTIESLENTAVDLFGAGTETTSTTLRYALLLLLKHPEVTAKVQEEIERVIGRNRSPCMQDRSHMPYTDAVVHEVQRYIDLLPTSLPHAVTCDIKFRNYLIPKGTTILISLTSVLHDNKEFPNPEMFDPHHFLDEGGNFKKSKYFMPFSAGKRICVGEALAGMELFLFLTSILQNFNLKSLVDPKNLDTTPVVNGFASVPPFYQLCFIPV

[4] = molecular target: Muscarinic acetylcholine receptor M2 (Homo sapiens) (UniProt P08172); details: at 30 µM, active compounds read high
[5] = system: Adrenergic alpha1A; details: at 30 µM; active compounds read high
[6] = system: Cannabinoid CB1; details: at 30 µM; active compounds read high
[7] = system: Nicotinic Acetylcholine; details: at 30 µM; active compounds read high
[8] = molecular target: Muscarinic acetylcholine receptor M3 (Homo sapiens) (UniProt P20309); details: at 30 µM, active compounds read high
Chain of Muscarinic acetylcholine receptor M3 (Homo sapiens) (P20309 whole entry, looked up): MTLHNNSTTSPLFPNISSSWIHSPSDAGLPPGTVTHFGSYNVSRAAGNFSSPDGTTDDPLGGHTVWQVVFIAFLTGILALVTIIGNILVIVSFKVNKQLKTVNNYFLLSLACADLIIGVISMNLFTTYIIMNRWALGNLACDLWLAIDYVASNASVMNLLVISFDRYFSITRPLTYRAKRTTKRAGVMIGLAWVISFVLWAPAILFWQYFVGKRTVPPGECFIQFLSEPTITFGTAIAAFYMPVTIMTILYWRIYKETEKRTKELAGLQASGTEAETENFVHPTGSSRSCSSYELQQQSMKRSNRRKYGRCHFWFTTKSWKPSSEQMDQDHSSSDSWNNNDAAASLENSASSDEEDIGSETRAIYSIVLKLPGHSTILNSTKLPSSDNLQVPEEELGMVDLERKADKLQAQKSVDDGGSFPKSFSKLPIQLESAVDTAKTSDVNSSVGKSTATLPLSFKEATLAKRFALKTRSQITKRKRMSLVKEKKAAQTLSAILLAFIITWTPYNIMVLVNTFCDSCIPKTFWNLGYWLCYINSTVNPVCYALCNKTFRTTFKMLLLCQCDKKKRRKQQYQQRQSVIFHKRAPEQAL

[9] = system: Adrenergic beta1; details: at 30 µM; active compounds read high
[10] = system: Adrenergic alpha1B; details: at 30 µM; active compounds read high
[11] = system: Sodium Channel, Site 2; details: at 30 µM; active compounds read high
[12] = molecular target: Alpha-2A adrenergic receptor (Homo sapiens) (UniProt P08913); details: Adrenergic alpha2A; at 30 µM; active compounds read high
Chain of Alpha-2A adrenergic receptor (Homo sapiens) (P08913 whole entry, looked up): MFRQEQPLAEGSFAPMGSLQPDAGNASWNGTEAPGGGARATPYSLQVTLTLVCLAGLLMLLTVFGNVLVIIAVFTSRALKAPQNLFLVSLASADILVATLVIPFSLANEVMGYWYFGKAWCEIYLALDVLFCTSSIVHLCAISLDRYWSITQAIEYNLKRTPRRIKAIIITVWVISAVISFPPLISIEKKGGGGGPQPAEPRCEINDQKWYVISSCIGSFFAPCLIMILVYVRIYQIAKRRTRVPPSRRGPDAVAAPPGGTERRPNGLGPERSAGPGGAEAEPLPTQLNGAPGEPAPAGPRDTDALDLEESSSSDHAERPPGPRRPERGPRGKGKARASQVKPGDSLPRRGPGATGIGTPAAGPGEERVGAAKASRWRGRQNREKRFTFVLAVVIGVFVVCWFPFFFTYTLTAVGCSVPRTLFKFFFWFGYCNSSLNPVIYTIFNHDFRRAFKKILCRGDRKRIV

[13] = system: Dopamine D2; details: at 30 µM; active compounds read high
[14] = molecular target: 5-hydroxytryptamine receptor 2B (Homo sapiens) (UniProt P41595); details: Serotonin (5-Hydroxytryptamine) 5-HT2B; at 30 µM; active compounds read high
[15] = molecular target: Voltage-gated inwardly rectifying potassium channel KCNH2 (Homo sapiens) (UniProt Q12809); details: Potassium Channel hERG; at 30 µM; active compounds read high
Chain of Voltage-gated inwardly rectifying potassium channel KCNH2 (Homo sapiens) (Q12809 whole entry, looked up): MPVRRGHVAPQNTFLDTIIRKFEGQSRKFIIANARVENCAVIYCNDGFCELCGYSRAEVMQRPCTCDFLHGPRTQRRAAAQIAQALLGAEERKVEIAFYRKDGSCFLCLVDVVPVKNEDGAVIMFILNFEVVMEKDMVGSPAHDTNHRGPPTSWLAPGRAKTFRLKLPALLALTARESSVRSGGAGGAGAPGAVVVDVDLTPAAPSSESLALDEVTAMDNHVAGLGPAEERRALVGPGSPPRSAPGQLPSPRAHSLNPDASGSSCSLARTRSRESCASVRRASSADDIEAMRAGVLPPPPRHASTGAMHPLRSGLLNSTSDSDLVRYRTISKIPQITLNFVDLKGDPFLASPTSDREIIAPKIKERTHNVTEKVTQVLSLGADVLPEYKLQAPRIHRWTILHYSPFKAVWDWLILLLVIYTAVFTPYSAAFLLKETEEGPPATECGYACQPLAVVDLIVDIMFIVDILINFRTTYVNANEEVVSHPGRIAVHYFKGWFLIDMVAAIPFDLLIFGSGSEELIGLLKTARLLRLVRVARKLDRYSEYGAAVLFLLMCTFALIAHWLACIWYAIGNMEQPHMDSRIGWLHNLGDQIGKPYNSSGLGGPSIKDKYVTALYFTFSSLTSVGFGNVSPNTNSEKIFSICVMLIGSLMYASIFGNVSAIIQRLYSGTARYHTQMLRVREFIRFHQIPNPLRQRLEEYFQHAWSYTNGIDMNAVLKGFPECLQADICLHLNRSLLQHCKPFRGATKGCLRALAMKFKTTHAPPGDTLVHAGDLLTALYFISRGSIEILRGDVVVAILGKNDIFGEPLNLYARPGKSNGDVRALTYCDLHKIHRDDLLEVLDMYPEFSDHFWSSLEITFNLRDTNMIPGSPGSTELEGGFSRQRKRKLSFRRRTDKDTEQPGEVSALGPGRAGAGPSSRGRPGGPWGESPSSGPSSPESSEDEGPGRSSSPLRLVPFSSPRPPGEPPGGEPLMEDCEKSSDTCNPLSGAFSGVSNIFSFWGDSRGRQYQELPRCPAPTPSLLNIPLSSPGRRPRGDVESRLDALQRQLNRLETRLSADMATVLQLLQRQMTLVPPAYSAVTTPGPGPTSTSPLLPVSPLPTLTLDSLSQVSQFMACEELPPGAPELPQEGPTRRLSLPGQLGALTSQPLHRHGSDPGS

[16] = system: Alpha-2A adrenergic receptor (Homo sapiens) + Histamine H1 receptor (Homo sapiens) + Mu-type opioid receptor (Homo sapiens); details: at 30 µM; active compounds read high
[17] = system: Adenosine A2A; details: at 30 µM; active compounds read high
[18] = system: CYP450 2C19; details: at 30 µM; active compounds read high
[19] = system: Prostanoid EP4; details: at 30 µM; active compounds read high
[20] = molecular target: D(1A) dopamine receptor (Homo sapiens) (UniProt P21728); details: Dopamine D1; at 30 µM; active compounds read high
Chain of D(1A) dopamine receptor (Homo sapiens) (P21728 whole entry, looked up): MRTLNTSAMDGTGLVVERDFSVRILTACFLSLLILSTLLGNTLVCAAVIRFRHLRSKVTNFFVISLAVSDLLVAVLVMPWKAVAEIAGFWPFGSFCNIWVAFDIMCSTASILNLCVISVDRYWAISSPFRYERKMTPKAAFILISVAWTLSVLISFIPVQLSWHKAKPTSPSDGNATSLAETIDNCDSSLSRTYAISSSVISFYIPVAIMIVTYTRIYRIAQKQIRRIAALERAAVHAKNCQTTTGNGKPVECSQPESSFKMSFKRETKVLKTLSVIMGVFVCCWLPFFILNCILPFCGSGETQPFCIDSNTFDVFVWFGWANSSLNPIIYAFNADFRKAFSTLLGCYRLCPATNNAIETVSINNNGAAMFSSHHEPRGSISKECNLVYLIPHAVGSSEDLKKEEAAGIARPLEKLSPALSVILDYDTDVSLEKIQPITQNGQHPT

[21] = molecular target: Beta-2 adrenergic receptor (Homo sapiens) (UniProt P07550); details: Adrenergic beta2; at 30 µM; active compounds read high
Chain of Beta-2 adrenergic receptor (Homo sapiens) (P07550 whole entry, looked up): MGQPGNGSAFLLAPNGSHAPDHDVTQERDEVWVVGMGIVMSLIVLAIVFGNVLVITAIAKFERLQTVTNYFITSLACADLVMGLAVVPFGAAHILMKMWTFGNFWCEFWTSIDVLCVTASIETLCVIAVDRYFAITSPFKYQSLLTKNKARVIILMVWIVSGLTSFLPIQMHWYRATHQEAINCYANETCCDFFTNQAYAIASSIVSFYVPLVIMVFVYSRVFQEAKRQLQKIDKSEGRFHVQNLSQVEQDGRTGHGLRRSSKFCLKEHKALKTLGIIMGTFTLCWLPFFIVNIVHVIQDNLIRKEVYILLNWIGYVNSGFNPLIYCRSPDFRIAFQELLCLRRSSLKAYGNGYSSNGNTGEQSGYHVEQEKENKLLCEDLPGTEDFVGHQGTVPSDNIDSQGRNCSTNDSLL

[22] = system: Glutamate, NMDA; details: Phencyclidine; at 30 µM; active compounds read high
[23] = system: GABAA; details: Central, at 30 µM, active compounds read high
[24] = molecular target: Cytochrome P450 3A4 (Homo sapiens) (UniProt P08684); details: CYP450 3A4; at 30 µM; active compounds read high
[25] = system: Opiate mu (OP3, MOP); details: at 30 µM; active compounds read high
[26] = molecular target: Cytochrome P450 2D6 (Homo sapiens) (UniProt P10635); details: CYP450 2D6; at 30 µM; active compounds read high
Chain of Cytochrome P450 2D6 (Homo sapiens) (P10635 whole entry, looked up): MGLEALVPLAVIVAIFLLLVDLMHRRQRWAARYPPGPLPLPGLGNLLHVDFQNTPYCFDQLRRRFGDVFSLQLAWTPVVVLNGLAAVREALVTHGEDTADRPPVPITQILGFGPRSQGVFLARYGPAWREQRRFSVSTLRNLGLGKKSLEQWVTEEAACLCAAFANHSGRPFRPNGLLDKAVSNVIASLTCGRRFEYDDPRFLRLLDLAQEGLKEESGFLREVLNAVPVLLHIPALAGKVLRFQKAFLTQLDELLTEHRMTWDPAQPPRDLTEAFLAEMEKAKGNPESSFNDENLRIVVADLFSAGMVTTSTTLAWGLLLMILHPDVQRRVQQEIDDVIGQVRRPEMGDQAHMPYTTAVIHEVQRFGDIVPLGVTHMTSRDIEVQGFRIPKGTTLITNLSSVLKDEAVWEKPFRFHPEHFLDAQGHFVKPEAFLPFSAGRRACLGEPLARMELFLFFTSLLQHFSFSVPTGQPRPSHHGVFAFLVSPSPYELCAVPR

[27] = system: Sigma 1; details: at 30 µM; active compounds read high
[28] = system: Norepinephrine Transporter (NET); details: at 30 µM; active compounds read high
[29] = system: Histamine H1; details: at 30 µM; active compounds read high
[30] = molecular target: Cytochrome P450 1A2 (Homo sapiens) (UniProt P05177); details: CYP450 1A2; at 30 µM; active compounds read high
Chain of Cytochrome P450 1A2 (Homo sapiens) (P05177 whole entry, looked up): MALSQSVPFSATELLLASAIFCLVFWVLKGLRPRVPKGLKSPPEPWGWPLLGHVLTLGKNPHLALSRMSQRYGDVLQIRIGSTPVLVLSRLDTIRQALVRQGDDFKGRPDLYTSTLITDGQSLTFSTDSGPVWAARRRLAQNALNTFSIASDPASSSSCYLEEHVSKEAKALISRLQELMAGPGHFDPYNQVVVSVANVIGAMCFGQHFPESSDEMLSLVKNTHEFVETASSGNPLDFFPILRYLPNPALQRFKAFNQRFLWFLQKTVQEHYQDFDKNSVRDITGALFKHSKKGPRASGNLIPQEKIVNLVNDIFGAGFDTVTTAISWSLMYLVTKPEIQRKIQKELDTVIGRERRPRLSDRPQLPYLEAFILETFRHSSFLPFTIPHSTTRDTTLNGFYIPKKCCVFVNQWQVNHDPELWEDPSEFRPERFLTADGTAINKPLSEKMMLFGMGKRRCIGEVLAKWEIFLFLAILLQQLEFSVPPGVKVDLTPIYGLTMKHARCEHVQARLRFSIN

Q: Which results are given for `COCCN=C1S/C(=C\c2cc(C)n(-c3ccc(F)cc3F)c2C)C(=O)N1C`?
A: inhibition [1]: 64%; inhibition [2]: 29% (inactive); inhibition [3]: -28% (inactive); inhibition [4]: 13% (inactive); inhibition [5]: 40% (inactive); inhibition [6]: 65%; inhibition [7]: -53%; inhibition [8]: 23% (inactive); inhibition [9]: 39% (inactive); inhibition [10]: 42% (inactive); inhibition [11]: 59%; inhibition [12]: 40% (inactive); inhibition [13]: 12% (inactive); inhibition [14]: 66%; inhibition [15]: 29% (inactive); inhibition [16]: 11% (inactive); inhibition [17]: 26% (inactive); inhibition [18]: -24% (inactive); inhibition [19]: 29% (inactive); inhibition [20]: 27% (inactive); inhibition [21]: 6% (inactive); inhibition [22]: 6% (inactive); inhibition ([23]; Flunitrazepam): -8% (inactive); inhibition ([23]; Muscimol): 3% (inactive); inhibition [24]: 56%; inhibition [25]: 69%; inhibition [26]: 8% (inactive); inhibition [27]: 2% (inactive); inhibition [28]: 71%; inhibition [29]: 52%; inhibition [30]: 14% (inactive)
